Laboratory results from patent EP0837881B1, “CONJUGATES OF alpha-MSH WITH A FATTY ACID, PREPARATION METHOD THEREFOR, AND USE THEREOF AS A DRUG” (INSTITUT EUROPEEN DE BIOLOGIE CELLULAIRE, priority 1995, dated 2004).
Several values for one entry are separate records, joined by “and”; a condition that tells them apart may be missing. Equal entries are not always repeated. Numbered stars: 1 amine (or outer) side, 2 acyl side, 3 side chain; on linkers, the order of the positions; unused ones are H or OH. Square brackets hold non-standard residues; d marks the D form. Peptide text beside a SMILES is read from it. Adipoyl = O=C(CCCCC(=O)[*:2])[*:1]; d(hPhe) = N[C@H](CCc1ccccc1)C(=O)O; hLeu = CC(C)CC[C@H](N)C(=O)O

Experiments:
souris = assay: Comparative DNFB contact hypersensitivity test, conjugate versus its peptide alone (Example 9); format: in vivo
From the text: La méthode utilisée est celle décrite précédemment dans l'exemple N° 4, hypersensibilité de contact induite chez la souris par la D N F B. • Produits étudiés Lot I : [formula] - Conjugué 1 représenté par le composé P3. Lot II : Me.Nle - Glu - His - D-homo-Phé - Arg - Trp - Gly - NH2 Lot T : Témoin = Acide trans-10-hydroxy-2-décénoïque.
Solvant : le propylène glycol précédemment employé comme témoin dans l'exemple 6.
Une mesure de l'activité du témoin sera effectuée pour chaque expérimentation. - Expérimentation et posologie
Témoin: 10 ng d' acide trans-10-hydroxy-2-décénoïque par souris et par jour.
Au cinquième jour, trente minutes après la dernière application toutes les souris sont sensibilisées avec 25 µl de D N F B (2.4-dinitro-1-fluorobenzène (FLUKA CHEMIKA PURUM à 97 % lot N° 33820890)) à 2 % dans un mélange 4 pour 1 d'acétone (SDS réf. 05510) et de trioléine (FLUKA) appliqué par voie topique sur la région dorsale de peau rasée. Au sixième jour, on procède à une nouvelle sensibilisation par application de D N F B. Au onzième jour, l'épaisseur des oreilles des souris, est mesurée à l'aide d'un micromètre (ROCH 0 à 25 mm au 1/100 mm) afin d'obtenir des valeurs de base, puis les oreilles sont stimulées par application topique de 20 µl de D N F B à 0,8 %. Au douzième jour, l'épaisseur des oreilles est à nouveau mesurée. On établit la valeur moyenne de l'épaississement des oreilles pour les souris des lots qui ont reçu les produits à étudier, ainsi que pour les souris du lot témoin.Le pourcentage de suppression éventuelle sera exprimé par la même équation que dans l'exemple 6.

[1] = test system: souris femelles C57 BL/6JICO; assay: Contact hypersensitivity test to dinitrofluorobenzene (DNFB), anti-allergic activity, topical application (Example 6); format: in vivo; settings: for % Augment. O. Gauche / % Augment. O. Droite: increase of ear thickness; for % Augment. O. Gauche / % Suppress. O. Gauche: left ear; for % Augment. O. Droite / % Suppress. O. Droite: right ear; for % Suppress. O. Gauche / % Suppress. O. Droite: suppression versus control lot
From the text: Des souris femelles C57 BL/6JICO, âgées de 5 semaines sont réparties en dix lots de dix animaux (cinq par cage), avec libre accès à l'eau et à la nourriture, soumises à une photopériode de douze heures de lumière par vingt-quatre heures.
Les animaux des lots 1 à 6 reçoivent quotidiennement et par application topique sur la peau rasée du dos, les produits à étudier (conjugués 1 et 5 représentés par les composés P1 et P2 préparés selon les exemples 1 et 2), mis en solution dans du propylène glycol, sous un volume constant de 50 µl et cela pendant cinq jours consécutifs.
• Composé P1 - Lots 1, 2 et 3 - 2,5 µg, 0,5 µg et 0,1 µg /souris/jour respectivement. • Composé P2 - Lots 4, 5 et 6 - 2,5 µg, 0,5 µg et 0.1 µg /souris/jour respectivement.
Les animaux du lot 10 servent de témoins (ils reçoivent seulement, 50 µl de propylène glycol par application topique pendant cinq jours).
Au cinquième jour, trente minutes après la dernière application toutes les souris sont sensibilisées avec 25 µl de D N F B (2,4-dinitro-1-fluorobenzène (FLUKA CHEMIKA PURUM à 97 % lot n° 33820890)) à 2 % dans un mélange 4 pour 1 d'acétone (SDS réf 0510) et de trioléine (FLUKA) appliqué par voie topique sur la région dorsale de peau rasée.
Au sixième jour, on procède à une nouvelle sensibilisation par application de D N F B.
Au onzième jour, l'épaisseur des oreilles des souris, est mesurée à l'aide d'un micromètre (ROCH 0 à 25 mm au 1/100 mm) afin d'obtenir des valeurs de base, puis les oreilles sont stimulées par application topique de 20 µl de DNFB à 0,8 %.
Au douzième jour, l'épaisseur des oreilles est à nouveau mesurée. On établit la valeur moyenne de l'épaississement des oreilles pour les souris des lots qui ont reçu les produits à étudier, ainsi que pour les souris du lot témoin.
Le pourcentage de suppression éventuelle sera exprimé par le calcul suivant : (T-E)/(T)x100 [formula] avec T pour le pourcentage d'augmentation de l'épaisseur moyenne des oreilles du lot témoin et E pour celui des lots qui ont reçu les produits à étudier.

PGE2 = assay: Inhibition of PGE2 production by IL1-stimulated MRC5 fibroblasts, RIA (Example 7); format: cell-based, humaine
From the text: Mise en évidence de l'effet inhibiteur des conjugués 1 et 5 (composés P1 et P2) sur la production par des fibroblastes stimulés par l'IL 1, d'un métabolite de l'acide arachidonique, la PGE2.
Nous avons choisi d'utiliser la souche ATCC MRC5 entretenue au laboratoire de façon continue et déjà testée par Cannon et al. (J. Immunol., 1986). Après un repiquage, les fibroblastes sont cultivés dans des micropuits (plaque de 24 puits de 2 cm^2, Falcon). L'innoculum est de 30 000 cellules par puits; le milieu nutritif utilisé est composé de RPMI 1640 (90 %) et de sérum de veau foetal décomplémenté (SVF, 10 %). Le milieu est changé tous les deux jours jusqu'à confluence des cellules.
Les couches monocellulaires ainsi obtenues sont lavées puis préincubées pendant 24 heures dans du milieu frais ne contenant que 1 % de SVF. […] Après 20 minutes d'incubation en présence de ces composés, l'ILI recombinante humaine (Tebu, France) à la concentration de 5, 2,5 ou 0,5 ng/ml de milieu est mise en contact avec des cellules pendant 18 heures. A la fin de cette incubation les surnageants sont prélevés et congelés à - 80 ° C jusqu'à l'analyse. Les couches monocellulaires sont fixées au méthanol.
Le dosage RIA est effectué selon la méthode décrite par Dray et al. (Europ. J. Invest. 1975). 3 séries d'expériences en duplicate ont été réalisées pour chaque concentration de produit étudié et pour les contrôles. Les résultats sont exprimés en pg/µg d'ADN. L'effet inhibiteur est exprimé en pourcentage par rapport aux contrôles.
Afin d'éviter toute erreur possible due au comptage en microscopie optique, l'ADN a été dosé par méthode fluorimétrique selon le protocole décrit par Brunk et al. (Analytical Biochem., 1979).

[2] = 0,1 µg/souris/jour topical for 5 days in propylene glycol
[3] = 0,1 µg/souris/jour topical for 5 days
[4] = 0,5 µg/souris/jour topical for 5 days in propylene glycol
[5] = 0,5 µg/souris/jour topical for 5 days
[6] = 2,5 µg/souris/jour topical for 5 days in propylene glycol
[7] = 2,5 µg/souris/jour topical for 5 days

O=C(O)/C=C/CCCCCCCO [Lot T, Acide trans-10-hydroxy-2-décénoïque]
% Augment. O. Gauche (souris; 0,01 µg/souris/jour (10 ng) topical in propylene glycol, control substance, one measurement per experiment, left ear): 55,80% and 57,10%
% Augment. O. Droite (souris; 0,01 µg/souris/jour (10 ng) topical in propylene glycol, control substance, one measurement per experiment, right ear): 56,00% and 57,50%
effet suppressif de l'hypersensibilité cutanée (souris; in solution in propylene glycol, 10 ng per mouse per day): pas d'effet suppressif

CC(C)CC[C@H](NC(=O)CCCCC(=O)O)C(=O)N[C@@H](CCC(=O)O)C(=O)N[C@@H](Cc1c[nH]cn1)C(=O)N[C@H](CCc1ccccc1)C(=O)N[C@@H](CCCNC(=N)N)C(=O)N[C@@H](Cc1c[nH]c2ccccc12)C(=O)NCC(N)=O [Conjugué 1, Adipoyl - Me.Nle - Glu - His - D-homo-Phé - Arg - Trp - Gly - NH2] (Adipoyl-[hLeu]EH[d(hPhe)]RWG-NH2)
% Augment. O. Gauche [1, 2]: 21,50%
% Augment. O. Droite [1, 2]: 22,00%
% Suppress. O. Gauche [1, 3]: 62,93%
% Suppress. O. Droite [1, 3]: 62,39%
% Augment. O. Gauche [1, 4]: 19,00%
% Augment. O. Droite [1, 4]: 19,50%
% Suppress. O. Gauche [1, 5]: 67,24%
% Suppress. O. Droite [1, 5]: 66,66%
% Augment. O. Gauche [1, 6]: 17,50%
% Augment. O. Droite [1, 6]: 17,80%
% Suppress. O. Gauche [1, 7]: 69,80%
% Suppress. O. Droite [1, 7]: 69,57%
suppression de la réaction d'hypersensibilité cutanée induite par administration de D N F. B ([1]; matches the 2,5 µg/souris/jour lots of Table 1): ~69%
% inhib. (PGE2; IL1 0,5 ng, conjugate 10^-4 M): 60%
PGE2 (PGE2; IL1 0,5 ng, conjugate 10^-4 M): 113 ± 25 pg/mg d'ADN
% inhib. (PGE2; IL1 0,5 ng, conjugate 10^-5 M): 38%
PGE2 (PGE2; IL1 0,5 ng, conjugate 10^-5 M): 176 ± 37 pg/mg d'ADN
% inhib. (PGE2; IL1 0,5 ng, conjugate 10^-6 M): 19%
PGE2 (PGE2; IL1 0,5 ng, conjugate 10^-6 M): 231 ± 55 pg/mg d'ADN
% inhib. (PGE2; IL1 0,5 ng, conjugate 10^-7 M): 13%
PGE2 (PGE2; IL1 0,5 ng, conjugate 10^-7 M): 249 ± 60 pg/mg d'ADN
% inhib. (PGE2; IL1 0,5 ng, conjugate 10^-8 M): 10%
PGE2 (PGE2; IL1 0,5 ng, conjugate 10^-8 M): 258 ± 35 pg/mg d'ADN
PGE2 (PGE2; IL1 0,5 ng, conjugate 10^-9 M): 364 ± 56 pg/mg d'ADN
% inhib. (PGE2; IL1 2,5 ng, conjugate 10^-4 M): 53%
PGE2 (PGE2; IL1 2,5 ng, conjugate 10^-4 M): 179 ± 50 pg/mg d'ADN
% inhib. (PGE2; IL1 2,5 ng, conjugate 10^-5 M): 40%
PGE2 (PGE2; IL1 2,5 ng, conjugate 10^-5 M): 232 ± 45 pg/mg d'ADN
% inhib. (PGE2; IL1 2,5 ng, conjugate 10^-6 M): 24%
PGE2 (PGE2; IL1 2,5 ng, conjugate 10^-6 M): 292 ± 68 pg/mg d'ADN
% inhib. (PGE2; IL1 2,5 ng, conjugate 10^-7 M): 6%
PGE2 (PGE2; IL1 2,5 ng, conjugate 10^-7 M): 364 ± 68 pg/mg d'ADN
% inhib. (PGE2; IL1 2,5 ng, conjugate 10^-8 M): 13%
PGE2 (PGE2; IL1 2,5 ng, conjugate 10^-8 M): 335 ± 50 pg/mg d'ADN
% inhib. (PGE2; IL1 2,5 ng, conjugate 10^-9 M): 17%
PGE2 (PGE2; IL1 2,5 ng, conjugate 10^-9 M): 320 ± 43 pg/mg d'ADN
action inhibitrice (PGE2; Table 2, dose-effect relation, independent of IL1 concentration): bonne action inhibitrice
action à partir de 10^-7 M (PGE2; conjugate 10^-7 M and lower, at both IL1 concentrations (2,5 and 0,5 ng)): pas d'action
pouvoir inhibiteur de l'action de l'IL1 et de la PGE2 (PGE2; summary of Tables 2 and 3): possèdent un pouvoir inhibiteur

CC(C)CC[C@H](N)C(=O)N[C@@H](CCC(=O)O)C(=O)N[C@@H](Cc1c[nH]cn1)C(=O)N[C@H](CCc1ccccc1)C(=O)N[C@@H](CCCNC(=N)N)C(=O)N[C@@H](Cc1c[nH]c2ccccc12)C(=O)NCC(N)=O [Lot II, Me.Nle - Glu - His - D-homo-Phé - Arg - Trp - Gly - NH2] (H-[hLeu]EH[d(hPhe)]RWG-NH2)
suppression de l'hypersensibilité cutanée (souris; 0,1 µg/souris/jour): 47%
suppression de l'hypersensibilité cutanée (souris; 0,5 µg/souris/jour): ~60%
suppression de l'hypersensibilité cutanée (souris; 2,5 µg/souris/jour): ~69%
